The results in this text go back to article PMC9011347, “Small-Molecule Inhibitors Targeting Lipolysis in Human Adipocytes” (Journal of the American Chemical Society, 2022).

The nature of this data set: Serum stability of ATGL inhibitors (UHPLC-MS). To be noted: 3 h at 37 °C. The format is in vitro ADME, human. On the procedure: Figure 2 Development and characterization of the human ATGL inhibitor NG-497. (a) Structure and IC50 values of human ATGL inhibitors. (b) Dose-dependent inhibition of human ATGL by respective inhibitors. (c) ATGL activity was determined at the indicated substrate concentrations in the absence and presence of NG-497 (0.5 μM). Ki was determined by nonlinear regression analysis using GraphPad Prism. Lineweaver–Burk analysis of ATGL inhibition is shown in the inset. (d) Toxicity of NG-497 in HepG2 cells was determined after 24 h incubation at indicated concentrations. Cisplatin and DMSO were used as positive and negative controls, respectively. Cytotoxicity was determined using the Roche LDH Kit and calculated as relative LDH release compared to fully lysed cells. (e) Stability of NG-497 was analyzed via ultrahigh-performance liquid chromatography–mass spectrometry (UHPLC-MS) after incubation in human serum for 0 or 3 h at 37 °C. Atglistatin and a chemically related unstable compound were used as controls. […] NG-497 concentrations/well were determined at the indicated time points using UHPLC-MS. […] Statistical significance was determined via t test (*p < 0.05; **p < 0.01; ***p < 0.001) or ANOVA followed by Bonferroni post hoc test (^###p < 0.001). […] The detected 297 lipid species of both groups were analyzed with supervised multivariate analysis OPLS-DA and are shown as a loading plot. […]

`CN(C)C(=O)Nc1cccc(-c2ccc(N(C)C)cc2)c1` [Atglistatin, reference compound]: the “stability in human serum” value was “not metabolized”.
On to `CCOc1ccc(-c2cc(OC)cc(C(=O)OC(C)C)n2)cc1` [NG-497], for which the “stability in human serum” value is on record as “not metabolized”.
